From patent US12263170B2, “Systems and methods for treating cancer” (priority 2015, dated 2025) come the findings set out here.

Each structure is given as a SMILES string.

Test [1] relates to 3381A murine cells (KRas mutant and LKB1 deficient). The test can be described thus: Percent viability with AZD1775, LKB1 rescue vs empty vector pBabe (FIG. 2D). The format is cell-based. Particulars: 3381A cells with rescue copy of LKB1 compared to control empty vector (pBabe). As to the method: Referring now to FIG. 2D, a similar experiment was conducted on murine cells that were KRas mutant and LKB1 deficient (3381A cells).

In test [2] the test system is A427 cell line. The test can be described thus: Percent viability with AZD1775, LKB1 rescue vs KDLKB1 transfection (FIG. 2A). The format is cell-based, human. Particulars: A427 cells with rescue copy of LKB1 compared to control KDLKB1 (non-functional kinase). How it is done: FIG. 2A illustrates, in accordance with embodiments herein, the role of LKB1 in the sensitivity of A427 cells to AZD1775. The A427 cell line was transfected with either a rescue copy of LKB1 (“LKB1”) or a copy of LKB1 with a non-functional kinase domain (“KDLKB1”) that produces non-functional LKB1. […] Next, referring to FIGS. 2A-2C, the LKB1 deficient lines discussed above in reference to FIGS. 1A and 1B were assessed for percent viability in the presence of increasing concentrations of AZD1775. Moreover, as all three cell lines were already LKB1 deficient, the inventors wanted to elucidate the role of LKB1 in the sensitivity of these cells to AZD1775. As such, each cell line with transfected with either a rescue copy of LKB1 (referred to as “LKB1” in these figures) or a copy of LKB1 with a non-functional kinase domain (referred to as KDLKB1 in these figures), which would produce non-functional LKB1.

The subject of test [3] is H2030 cell line. Nature of the test: Percent viability with AZD1775, LKB1 rescue vs KDLKB1 transfection (FIG. 2C). The format is cell-based, human. The settings on record: H2030 cells with rescue copy of LKB1 compared to control KDLKB1 (non-functional kinase). As to the method:
FIG. 2C illustrates, in accordance with embodiments herein, the role of LKB1 in the sensitivity of […] to AZD1775. The H2030 cell line was transfected with either a rescue copy of LKB1 (“LKB1”) or a copy of LKB1 with a non-functional kinase domain (“KDLKB1”) that produces non-functional LKB1.
Next, referring to FIGS. 2A-2C, the LKB1 deficient lines discussed above in reference to FIGS. 1A and 1B were assessed for percent viability in the presence of increasing concentrations of AZD1775. Moreover, as all three cell lines were already LKB1 deficient, the inventors wanted to elucidate the role of LKB1 in the sensitivity of these cells to AZD1775. As such, each cell line with transfected with either a rescue copy of LKB1 (referred to as “LKB1” in these figures) or a copy of LKB1 with a non-functional kinase domain (referred to as KDLKB1 in these figures), which would produce non-functional LKB1.

Test [4] relates to A549 and H2030 cells. Nature of the test: Cell signaling molecules after AZD1775 alone and with 2Gy ionizing radiation (FIGS. 4A, 4B). The format is cell-based, human. The settings on record: AZD1775 alone and in combination with 2Gy of ionizing radiation. From the text: Next, referring now to FIGS. 4A and 4B, the investigators examined cell signaling molecules in A549 and H2030 cells, including both rescue and control conditions. The investigators treated with AZD1775 alone and in combination with 2Gy of ionizing radiation.

The subject of test [5] is H2030 cells (KRas mutant and LKB1 deficient). Nature of the test: Viability with AZD1775 combined with cisplatin, pemetrexed or gemcitabine (FIGS. 3A-3C). The format is cell-based, human. The settings on record: AZD1775 alone. How it is done: Similar to the previous experiments, H2030 cells (KRas mutant and LKB1 deficient) were transfected with a rescue copy of LKB1 or a version of LKB1 with a non-functional kinase domain that produces non-functional LKB1 protein. Moreover, these different cells were treated with AZD1775 (also referred to as MK1775) in combination with cisplatin (FIG. 3A), pemetrexed (FIG. 3B), or gemcitabine (FIG. 3C).

In test [6] the test system is A549 cell line. Nature of the test: Percent viability with AZD1775, LKB1 rescue vs KDLKB1 transfection (FIG. 2B). The settings on record: A549 cells with rescue copy of LKB1 compared to control KDLKB1 (non-functional kinase). The format is cell-based, human. How it is done: FIG. 2B illustrates, in accordance with embodiments herein, the role of LKB1 in the sensitivity of […] to AZD1775. The A549 cell line was transfected with either a rescue copy of LKB1 (“LKB1”) or a copy of LKB1 with a non-functional kinase domain (“KDLKB1”) that produces non-functional LKB1. […] Next, referring to FIGS. 2A-2C, the LKB1 deficient lines discussed above in reference to FIGS. 1A and 1B were assessed for percent viability in the presence of increasing concentrations of AZD1775. Moreover, as all three cell lines were already LKB1 deficient, the inventors wanted to elucidate the role of LKB1 in the sensitivity of these cells to AZD1775. As such, each cell line with transfected with either a rescue copy of LKB1 (referred to as “LKB1” in these figures) or a copy of LKB1 with a non-functional kinase domain (referred to as KDLKB1 in these figures), which would produce non-functional LKB1.

In test [7] the test system is LKB1 deficient cells (A427, A549, and H2030). The test can be described thus: Viability of KRas mutant NSCLC adenocarcinoma cell lines at various concentrations of AZD1775 (FIGS. 1A, 1B). The format is cell-based, human. Particulars: LKB1 deficient cells compared with the other KRas mutant NSCLC cell lines. The text has this:
Referring to FIGS. 1A and 1B, the inventors assessed the impact of various concentrations of a G2/M checkpoint inhibitor (i.e., Wee1 kinase inhibitor-AZD1775) on various cell lines with different genetic backgrounds. All of the cell lines tested in FIGS. 1A and 1B where KRas mutant, some of the cell lines were p53 mutants, and some of the cell lines (i.e., A427, A549, and H2030) were LKB1 deficient. All cell lines were adenocarcinoma from patients with NSCLC.

Test [8] has as its system mutant kras/lkb 1 deficient nsclc tumors in transgenic mice. The test can be described thus: Survival of adenoCre-infected KRasG12D/LKB1 FL/FL/luci mice (FIG. 9). The format is in vivo. The settings on record: Cisplatin once per week 2.5 mg/kg, with or without AZD1775 30 mg/kg three times per week; treated for four weeks; log-rank analysis. As to the method:
Referring to FIG. 9, the investigators transiently infected 6-8 week old KRas^G12D/LKB 1^FL/FL/luci with 5×10^6 P.F.U. of adenoCre via intratracheal inhalation. Mice received scans using the Xenogen IVIS at 8 weeks to identify disease. Mice were then randomized to Cisplatin (once per week, 2.5 mg/kg) or AZD1775 (30 mg/kg, three times per week)+cisplatin and treated for four weeks. Survival was calculated via log-rank analysis. It was observed that the median survival rate of mice receiving Cisplatin was 12 weeks, whereas the median survival rate of mice receiving Cisplatin+AZD1775 was 14 weeks. For this set of experiments, the hazard ratio was 0.3972, while the confidence interval was 0.0605-0.6086.

On to `C=CCn1c(=O)c2cnc(Nc3ccc(N4CCN(C)CC4)cc3)nc2n1-c1cccc(C(C)(C)O)n1` [AZD1775], for which the “sensitivity to AZD1775 as measured by percent viability” value in test [1], in test [2], in test [3] and in test [6] was “less sensitive” throughout. Also, the “phosphorylated AMPK” value in test [4] (LKB1 (rescue) cells) is “increased amounts of phosphorylated AMPK”. Besides, in test [4] (LKB1-deficient cells), the “phosphorylated H2AX (indicator of DNA damage)” value is reported as “increased amount of phosphorylated H2AX”. For the same compound, the cell viability entry in test [5] was “negative impact on cell viability”. For the same compound, in test [7] (FIG. 1B), the EC50 values result is “lowest EC50 values”. Further, the viability result in test [7] (increasing concentrations of AZD1775, FIG. 1A) was “greatest reduced viability”.

Take `N.N.[Cl][Pt][Cl]` [Cisplatin]: the median survival rate in test [8] came to 12 weeks.
